The values that follow come from article PMC12836451, “Cyclic Peptide–Polymer Conjugate Nanotubes for Delivery of SN‐38 in Treatment of Colorectal Cancer Model” (Advanced Healthcare Materials, 2025).

The conditions of series [1]: cited from earlier work. The text has this: Despite significant scientific advances in recent decades, cancer remains one of the most formidable challenges for modern medicine. The rising rates of colorectal cancer (CRC) diagnoses, particularly amongst younger people, exemplify the new complexities faced. Despite efforts to promote early detection and fast onset of treatment, the prognosis for CRC remains grim, ranking as one of the deadliest malignancies worldwide.

Series [2] deals with CT26 cells. As to the kind of experiment: MTS cell viability assay. To be noted: Mus musculus, CT26, 48 h. It is filed as cell-based, murine. As for the experimental part:
Cells were typically grown to 70–80% confluence before passaging, and cells were not used past 20 passages total.
The wells were then treated with 20 µL of MTS reagent (Promega, CellTiter 96 AQeuous One Solution Cell Proliferation Assay) for 4 h, before UV absorbance reading on Biotek Cytation 3 Plate reader (490 nm). The relative cell viability was determined by comparison to untreated cells or cells with DMSO or EtOH at a range of concentrations.
Background: Tetrazolium assays rely on reduction of a dye to a coloured formazan, in cell work by metabolically active cells.

The test system of series [3] is CT26 spheroids. As to the kind of experiment: 3D spheroid growth assay. To be noted: 10 µM, control grew by over 300 µm. The class given is cell-based, murine. As for the experimental part:
CT26 cells were harvested and seeded in a non‐tissue culture‐treated, U‐bottom‐shaped 96‐well plates at a density of 500 cells per well (200 µL media per well), before centrifugation at 500 xG for 10 minutes. The plate incubated and the spheroids allowed to form over a period of days (typically 5–8). […] Non‐treated/Control spheroids received fresh media.

Series [4] deals with CT26 xenograft. To be noted: CT26 xenograft mice, three i.v. doses.
Series [5] is described as follows: Pharmacokinetics study in mice (plasma, LC-MS, non-compartmental). Conditions: non-tumor female BALB/c mice, i.v., irinotecan 15 mg kg−1 or SN-38 nanotubes 10 mg kg−1 drug, SN-38 = prodrug and hydrolysed forms combined.

pIC50: −log10 of the molar value. Counter-ions that a name gives are not always drawn. Like-named read-outs stand apart in the source and are kept apart here.

With `CCc1c2c(nc3ccc(OC(=O)N4CCC(N5CCCCC5)CC4)cc13)-c1cc3c(c(=O)n1C2)COC(=O)[C@]3(O)CC` [Irinotecan, irinotecan hydrochloride], the “reduction of potency compared to SN-38” value in series [1] is recorded as 100–1000 fold. In series [2] (n = 3, read-out: concentration required to achieve more than 50% cell death), the pIC50 was less than 5.00. Moreover, the “increase of spheroid diameter over 5 days” value in series [3] was 40 µm. Besides, the “tolerability (body weight, welfare scoring)” value in series [4] is recorded as “well tolerated”. Besides, in series [5], the C max is on record as 29.6 µM.
On to `CCc1c2c(nc3ccc(O)cc13)-c1cc3c(c(=O)n1C2)COC(=O)[C@]3(O)CC` [SN-38, 7‐ethyl‐10‐hydroxycamptothecin], for which the aqueous solubility result in series [1] (reason for not testing in vivo) was “poor aqueous solubility”. Further, the pIC50 in series [2] (concentrations are SN-38 concentration, n = 3, read-out: IC50) was roughly 6.70.
